Source: patent US9113629B2, “4-amino-6-(4-substituted-phenyl)-picolinates and 6-amino-2-(4-substituted-phenyl)-pyrimidine-4-carboxylates and their use as herbicides” (DOW AGROSCIENCES LLC, priority 2013, dated 2015)
Like-named read-outs stand apart in the source and are kept apart here.

Assays:
[1] = test system: Key Broadleaf Weed and Crop Species; assay: Post-emergent Test II herbicidal activity (Table 5); type: in vivo; conditions: post-emergence, 336 h, post-emergent, 14 days after application; for pest or weed control at 70 g/ha: 70 g ai/ha; for pest or weed control at 140 g/ha: 140 g ai/ha
Method in brief: (§1)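 Compounds, dissolved in 97:3 acetone/DMSO and diluted into an aqueous carrier containing crop oil concentrate and Triton X-155, are applied over the top of young plants at 187 L/ha. Injury is scored visually at 14 d, 0% meaning no effect and 100% complete kill.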

[2] = test system: Key Grass and Sedge Weeds as well as Grass Crops; assay: Post-emergent Test II herbicidal activity (Table 6); type: in vivo; conditions: post-emergence, 336 h; for pest or weed control at 70 g/ha: application rate 70 g ai/ha; for pest or weed control at 140 g/ha: application rate 140 g ai/ha
Method in brief: as §1

[3] = ABUTH: velvetleaf (Abutilon theophrasti), read-out: Visual Growth Reduction (%) 14 Days After Application ABUTH
[4] = AMARE: redroot pigweed (Amaranthus retroflexus), read-out: Visual Growth Reduction (%) 14 Days After Application AMARE
[5] = BRSNN: oilseed-rape, canola (Brassica napus), read-out: Visual Growth Reduction (%) 14 Days After Application BRSNN
[6] = CHEAL: lambsquarters (Chenopodium album), read-out: Visual Growth Reduction (%) 14 Days After Application CHEAL
[7] = EPHHL: wild poinsettia (Euphorbia heterophylla), read-out: Visual Growth Reduction (%) 14 Days After Application EPHHL
[8] = HELAN: sunflower (Helianthus annuus), read-out: Visual Growth Reduction (%) 14 Days After Application HELAN
[9] = VIOTR: wild pansy (Viola tricolor), read-out: Visual Growth Reduction (%) 14 Days After Application VIOTR
[10] = Triticum aestivum, TRZSS (wheat), read-out: Visual Growth Reduction (%) 14 Days After Application, TRZSS
[11] = CYPES: yellow nutsedge (Cyperus esculentus), read-out: Visual Growth Reduction (%) 14 Days After Application, CYPES
[12] = DIGSA: crabgrass (Digitaria sanguinalis), read-out: Visual Growth Reduction (%) 14 Days After Application, DIGSA
[13] = ECHCG: barnyardgrass (Echinochloa crus-galli), read-out: Visual Growth Reduction (%) 14 Days After Application, ECHCG
[14] = ORYSA: rice (Oryza sativa), read-out: Visual Growth Reduction (%) 14 Days After Application, ORYSA
[15] = SETFA: giant foxtail (Setaria faberi), read-out: Visual Growth Reduction (%) 14 Days After Application, SETFA
[16] = SORVU: grain sorghum (Sorghum vulgare), read-out: Visual Growth Reduction (%) 14 Days After Application, SORVU
[17] = ZEAMX: maize, corn (Zea mays), read-out: Visual Growth Reduction (%) 14 Days After Application, ZEAMX

Nc1cc(-c2ccc(I)c(F)c2)nc(C(=O)O)c1Cl [Compound 77, 4-amino-3-chloro-6-(3-fluoro-4-iodophenyl)picolinic acid]
pest or weed control at 70 g/ha [1, 3]: 85 to 94% | pest or weed control at 140 g/ha [1, 3]: 95 to 100% | pest or weed control at 70 g/ha [1, 4]: 95 to 100% | pest or weed control at 140 g/ha [1, 4]: 95 to 100% | pest or weed control at 70 g/ha [1, 5]: 75 to 84% | pest or weed control at 140 g/ha [1, 5]: 85 to 94% | pest or weed control at 70 g/ha [1, 6]: 95 to 100% | pest or weed control at 140 g/ha [1, 6]: 95 to 100% | pest or weed control at 70 g/ha [1, 7]: 95 to 100% | pest or weed control at 140 g/ha [1, 7]: 95 to 100% | pest or weed control at 70 g/ha [1, 8]: 85 to 94% | pest or weed control at 140 g/ha [1, 8]: 85 to 94% | pest or weed control at 70 g/ha [1, 9]: 0 to 29% | pest or weed control at 140 g/ha [1, 9]: 0 to 29% | pest or weed control at 70 g/ha [2, 10]: 45 to 59% | pest or weed control at 140 g/ha [2, 10]: 45 to 59% | pest or weed control at 70 g/ha [2, 11]: 0 to 29% | pest or weed control at 140 g/ha [2, 11]: 45 to 59% | pest or weed control at 70 g/ha [2, 12]: 75 to 84% | pest or weed control at 140 g/ha [2, 12]: 85 to 94% | pest or weed control at 70 g/ha [2, 13]: 60 to 74% | pest or weed control at 140 g/ha [2, 13]: 60 to 74% | pest or weed control at 70 g/ha [2, 14]: 0 to 29% | pest or weed control at 140 g/ha [2, 14]: 0 to 29% | pest or weed control at 70 g/ha [2, 15]: 0 to 29% | pest or weed control at 140 g/ha [2, 15]: 0 to 29% | pest or weed control at 70 g/ha [2, 16]: 45 to 59% | pest or weed control at 140 g/ha [2, 16]: 45 to 59% | pest or weed control at 70 g/ha [2, 17]: 0 to 29% | pest or weed control at 140 g/ha [2, 17]: 0 to 29%

Cc1c(-c2ccc(Br)cc2)nc(C(=O)O)c(Cl)c1N [Compound 78, 4-Amino-6-(4-bromophenyl)-3-chloro-5-methylpicolinic acid]
pest or weed control at 70 g/ha [1, 3]: 95 to 100% | pest or weed control at 140 g/ha [1, 3]: 95 to 100% | pest or weed control at 70 g/ha [1, 4]: 85 to 94% | pest or weed control at 140 g/ha [1, 4]: 95 to 100% | pest or weed control at 70 g/ha [1, 5]: 85 to 94% | pest or weed control at 140 g/ha [1, 5]: 95 to 100% | pest or weed control at 70 g/ha [1, 6]: 85 to 94% | pest or weed control at 140 g/ha [1, 6]: 85 to 94% | pest or weed control at 70 g/ha [1, 7]: 0 to 29% | pest or weed control at 140 g/ha [1, 7]: 0 to 29% | pest or weed control at 70 g/ha [1, 8]: 95 to 100% | pest or weed control at 140 g/ha [1, 8]: 95 to 100% | pest or weed control at 70 g/ha [1, 9]: 0 to 29% | pest or weed control at 140 g/ha [1, 9]: 0 to 29% | pest or weed control at 70 g/ha [2, 10]: 45 to 59% | pest or weed control at 140 g/ha [2, 10]: 45 to 59% | pest or weed control at 70 g/ha [2, 11]: 0 to 29% | pest or weed control at 140 g/ha [2, 11]: 95 to 100% | pest or weed control at 70 g/ha [2, 12]: 0 to 29% | pest or weed control at 140 g/ha [2, 12]: 0 to 29% | pest or weed control at 70 g/ha [2, 13]: 0 to 29% | pest or weed control at 140 g/ha [2, 13]: 0 to 29% | pest or weed control at 70 g/ha [2, 14]: 0 to 29% | pest or weed control at 140 g/ha [2, 14]: 0 to 29% | pest or weed control at 70 g/ha [2, 15]: 45 to 59% | pest or weed control at 140 g/ha [2, 15]: 60 to 74% | pest or weed control at 70 g/ha [2, 16]: 0 to 29% | pest or weed control at 140 g/ha [2, 16]: 0 to 29% | pest or weed control at 70 g/ha [2, 17]: 0 to 29% | pest or weed control at 140 g/ha [2, 17]: 30 to 44%
